Test results from US10258603B2 (priority 2014, dated 2019).

Target: T1, TAF1-BD2 (Homo sapiens, UniProt P21675)
T1 sequence (P21675 1525-1656): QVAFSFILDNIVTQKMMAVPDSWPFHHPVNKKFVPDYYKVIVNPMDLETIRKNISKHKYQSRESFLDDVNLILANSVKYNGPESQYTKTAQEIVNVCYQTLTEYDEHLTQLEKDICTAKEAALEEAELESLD
Experiment: TAF1-BD2 TR-FRET Binding Assay
Conditions: Assay: TAF-1
Method: Specifically, in a 384 well ProxiPlate TAF1-BD2 (6 nM final) was combined with biotin-ligand (50 nM final) in 50 mM HEPES (pH 7.5), 50 mM NaCl, 1 mM TCEP, 0.01% (w/v) BSA, and 0.008% (w/v) Brij-35 either in the presence of DMSO (final 0.2% DMSO) or compound dilution series in DMSO. After 10 minutes incubation at room temperature, a mixture Eu-W1024 Anti-6×His antibody (Perkin Elmer AD0110) and SureLight™ Allophycocyanin-Streptavidin (APC-SA, Perkin Elmer CR130-100) were added to a final concentrations of 0.2 nMolar antibody and 25 nMolar APC-SA, respectively. After twenty minutes of equilibration, the plates were read on an Envision instrument and IC50s calculated using a four parameter non-linear curve fit.

Row | Compound | IC50 [µM]
1 | CN1CCCC(CNC(=O)c2cn(C)c(=O)c3[nH]ccc23)C1 (centres unmarked) [Example 24, 6-methyl-N-[(1-methyl-3-piperidyl)methyl]-7-oxo-1H-pyrrolo[2,3-c]pyridine-4-carboxamide] | 0.15
2 | CN1CCC(CCNC(=O)c2cn(C)c(=O)c3[nH]ccc23)CC1 [Example 25, 6-methyl-N-[2-(1-methyl-4-piperidyl)ethyl]-7-oxo-1H-pyrrolo[2,3-c]pyridine-4-carboxamide] | 0.69
3 | CCN1CCC(CN(C)C(=O)c2cn(C)c(=O)c3[nH]ccc23)C1 (centres unmarked) [Example 27, N-[(1-ethylpyrrolidin-3-yl)methyl]-N,6-dimethyl-7-oxo-1H-pyirolo[2,3-c]pyridine-4-carboxamide] | 6.9
4 | Cn1cc(C(=O)NCC(C)(C)N2CCOCC2)c2cc[nH]c2c1=O [Example 36, 6-methyl-N-(2-methyl-2-morpholino-propyl)-7-oxo-1H-pyrrolo [2,3-c]pyridine-4-carboxamide] | 1.7
5 | CN(C)C1CCN(C(=O)c2cn(C)c(=O)c3[nH]ccc23)CC1 [Example 40, 4-[4-(dimethylamino)piperidine-1-carbonyl]-6-methyl-1H-pyrrolo[2,3-c]pyridin-7-one] | 0.069
6 | Cn1cc(C(=O)NC2CCN(c3ccccn3)CC2)c2cc[nH]c2c1=O [Example 42, 6-methyl-7-oxo-N-[1-(2-pyridyl)-4-piperidyl]-1H-pyrrolo[2,3-c]pyridine-4-carboxamide] | 0.21
7 | Cn1cc(C(=O)NC2CCN(C3CCCC3)CC2)c2cc[nH]c2c1=O [Example 43, N-(1-cyclopentyl-4-piperidyl)-6-methyl-7-oxo-1H-pyrrolo[2,3-c]pyridine-4-carboxamide] | 0.72
8 | Cn1cc(C(=O)NC2CCN(c3ncccn3)CC2)c2cc[nH]c2c1=O [Example 44, 6-methyl-7-oxo-N-(1-pyrimidin-2-yl-4-piperidyl)-1H-pyrrolo[2,3-c]pyridine-4-carboxamide] | 0.34
9 | Cn1cc(C(=O)N2CCC(C(C)(C)C)CC2)c2cc[nH]c2c1=O [Example 47, 4-(4-tert-butylpiperidine-1-carbonyl)-6-methyl-1H-pyrrolo[2,3-c]pyridin-7-one] | 2.3
10 | Cn1cc(C(=O)N2CCC(c3ccc(Cl)cc3)CC2)c2cc[nH]c2c1=O [Example 48, 4-[4-(4-chlorophenyl)piperidine-1-carbonyl]-6-methyl-1H-pyrrolo[2,3-c]pyridin-7-one] | 1.5
11 | Cn1cc(C(=O)N2CCC(c3cccc(F)c3)CC2)c2cc[nH]c2c1=O [Example 49, 4-[4-(3-fluorophenyl)piperidine-1-carbonyl]-6-methyl-1H-pyrrolo[2,3-c]pyridin-7-one] | 3.9
12 | Cn1cc(C(=O)N2CCC(c3cnccn3)CC2)c2cc[nH]c2c1=O [Example 51, 6-methyl-4-(4-pyrazin-2-ylpiperidine-1-carbonyl)-1H-pyrrolo[2,3-c]pyridin-7-one] | 4.4
13 | CN(C1CCCCC1)C1CCN(C(=O)c2cn(C)c(=O)c3[nH]ccc23)CC1 [Example 52, 4-[4-[cyclohexyl(methyl)amino]piperidine-1-carbonyl]-6-methyl-1H-pyrrolo[2,3-c]pyridin-7-one] | 7.1
14 | Cn1cc(C(=O)N2CCC(F)CC2)c2cc[nH]c2c1=O [Example 53, 4-(4-fluoropiperidine-1-carbonyl)-6-methyl-1H-pyrrolo[2,3-c]pyridin-7-one] | 8.2
15 | Cn1cc(C(=O)N2CCC(CCNS(C)(=O)=O)CC2)c2cc[nH]c2c1=O [Example 54, N-[2-[1-(6-methyl-7-oxo-1H-pyrrolo[2,3-c]pyridine-4-carbonyl)-4-piperidyl]ethyl]methanesulfonamide] | 2.9
16 | Cn1cc(C(=O)N2CCC(c3ccncn3)CC2)c2cc[nH]c2c1=O [Example 56, 6-methyl-4-(4-pyrimidin-4-ylpiperidine-1-carbonyl)-1H-pyrrolo[2,3-c]pyridin-7-one] | 2.5
17 | Cn1cc(C(=O)N2CCC(Cc3ccccn3)CC2)c2cc[nH]c2c1=O [Example 58, 6-methyl-4-[4-(2-pyridylmethyl)piperidine-1-carbonyl]-1H-pyrrolo[2,3-c]pyridin-7-one] | 1.5
18 | Cn1cc(C(=O)N2CCC(N3CCOCC3)CC2)c2cc[nH]c2c1=O [Example 63, 6-methyl-4-(4-morpholinopiperidine-1-carbonyl)-1H-pyrrolo[2,3-c]pyridin-7-one] | 4.7
19 | Cn1cc(C(=O)N2CCCCC2)c2cc[nH]c2c1=O [Example 70, 6-methyl-4-(piperidine-1-carbonyl)-1H-pyrrolo[2,3-c]pyridin-7-one] | 6.4
20 | Cn1cc(C(=O)N2CCC(c3ccccc3)CC2)c2cc[nH]c2c1=O [Example 71, 6-methyl-4-(4-phenylpiperidine-1-carbonyl)-1H-pyrrolo[2,3-c]pyridin-7-one] | 3
21 | CCCN1CCC(N(C(=O)c2cn(C)c(=O)c3[nH]ccc23)C2CC2)CC1 [Example 82, N-cyclopropyl-6-methyl-7-oxo-N-(1-propyl-4-piperidyl)-1H-pyrrolo[2,3-c]pyridine-4-carboxamide] | 7
22 | Cn1cc(C(=O)NCC2CCCC2)c2cc[nH]c2c1=O [Example 83, N-(cyclopentylmethyl)-6-methyl-7-oxo-1H-pyrrolo[2,3-c]pyridine-4-carboxamide] | 0.67

Row | Compound | IC50 [µM]
23 | COCCN(C(=O)c1cn(C)c(=O)c2[nH]ccc12)C1CCN(C)CC1 [Example 84] | 5.7
24 | Cn1cc(C(=O)NCC2CCCOC2)c2cc[nH]c2c1=O (centres unmarked) [Example 100] | 1.7
25 | Cn1cc(C(=O)NCC2CN(C(=O)OC(C)(C)C)C2)c2cc[nH]c2c1=O [Example 130] | 1.2
26 | Cn1cc(C(=O)NCC2CCN(C(=O)OC(C)(C)C)CC2)c2cc[nH]c2c1=O [Example 133] | 0.85
27 | Cn1cc(C(=O)NCC2CCCN(C(=O)OC(C)(C)C)C2)c2cc[nH]c2c1=O (centres unmarked) [Example 135] | 1.3
28 | Cn1cc(C(=O)NCC2CCN(C(=O)OC(C)(C)C)C2)c2cc[nH]c2c1=O (centres unmarked) [Example 137] | 0.51
29 | Cn1cc(C(=O)NC2CCN(c3ccncn3)CC2)c2cc[nH]c2c1=O [Example 148, 6-methyl-7-oxo-N-(1-pyrimidin-4-yl-4-piperidyl)-1H-pyrrolo[2,3-c]pyridine-4-carboxamide] | 0.44
30 | Cc1cnc(N2CCC(NC(=O)c3cn(C)c(=O)c4[nH]ccc34)CC2)nc1 [Example 149, 6-methyl-N-[1-(5-methylpyrimidin-2-yl)-4-piperidyl]-7-oxo-1H-pyrrolo[2,3-c]pyridine-4-carboxamide] | 0.32
31 | Cc1ccnc(N2CCC(NC(=O)c3cn(C)c(=O)c4[nH]ccc34)CC2)n1 [Example 150, 6-methyl-N-[1-(4-methylpyrimidin-2-yl)-4-piperidyl]-7-oxo-1H-pyrrolo[2,3-c]pyridine-4-carboxamide] | 0.36
32 | Cn1cc(C(=O)NC2CCN(c3cnccn3)CC2)c2cc[nH]c2c1=O [Example 151, 6-methyl-7-oxo-N-(1-pyrazin-2-yl-4-piperidyl)-1H-pyrrolo[2,3-c]pyridine-4-carboxamide] | 0.55
33 | Cn1cc(C(=O)NC2CCN(c3ncc(C#N)cn3)CC2)c2cc[nH]c2c1=O [Example 152, N-[1-(5-cyanopyrimidin-2-yl)-4-piperidyl]-6-methyl-7-oxo-1H-pyrrolo[2,3-c]pyridine-4-carboxamide] | 0.57
34 | Cn1cc(C(=O)NC2CCN(c3nccc(C(F)(F)F)n3)CC2)c2cc[nH]c2c1=O [Example 153, 6-methyl-7-oxo-N-[1-[4-(trifluoromethyl)pyrimidin-2-yl]-4-piperidyl]-1H-pyrrolo[2,3-c]pyridine-4-carboxamide] | 0.49
35 | Cn1cc(C(=O)NC2CCN(c3ncc(F)cn3)CC2)c2cc[nH]c2c1=O [Example 154, N-[1-(5-fluoropyrimidin-2-yl)-4-piperidyl]-6-methyl-7-oxo-1H-pyrrolo[2,3-c]pyridine-4-carboxamide] | 0.53
36 | Cn1cc(C(=O)NC2CCN(c3cccnn3)CC2)c2cc[nH]c2c1=O [Example 155, 6-methyl-7-oxo-N-(1-pyridazin-3-yl-4-piperidyl)-1H-pyrrolo[2,3-c]pyridine-4-carboxamide] | 0.33
37 | Cn1cc(C(=O)NC2CCN(c3nccc(C#N)n3)CC2)c2cc[nH]c2c1=O [Example 156, N-[1-(4-cyanopyrimidin-2-yl)-4-piperidyl]-6-methyl-7-oxo-1H-pyrrolo[2,3-c]pyridine-4-carboxamide] | 0.99
38 | CN(CC1CCN(c2ncccn2)CC1)C(=O)c1cn(C)c(=O)c2[nH]ccc12 [Example 157, N,6-dimethyl-7-oxo-N-[(1-pyrimidin-2-yl-4-piperidyl)methyl]-1H-pyrrolo[2,3-c]pyridine-4-carboxamide] | 1.6
39 | C=CCn1cc(C(=O)N(C)C2CCN(c3cc(CCC)ncn3)CC2)c2cc[nH]c2c1=O [Example 166, 6-allyl-N-methyl-7-oxo-N-[1-(6-propylpyrimidin-4-yl)-4-piperidyl]-1H-pyrrolo[2,3-c]pyridine-4-carboxamide] | 2.1
40 | Cn1cc(C(=O)NC2CCN(c3ccccc3)CC2)c2cc[nH]c2c1=O [Example 171, 6-methyl-7-oxo-N-(1-phenyl-4-piperidyl)-1H-pyrrolo[2,3-c]pyridine-4-carboxamide] | 0.26
41 | CC(C)c1ccc(N2CCC(N(C)C(=O)c3cn(C)c(=O)c4[nH]ccc34)CC2)cc1 [Example 180, N-[1-(4-isopropylphenyl)-4-piperidyl]-N,6-dimethyl-7-oxo-1H-pyrrolo[2,3-c]pyridine-4-carboxamide] | 0.16
42 | COCCN1CCC(CN(C)C(=O)c2cn(C)c(=O)c3[nH]ccc23)CC1 [Example 193] | 1.6
43 | CN(CC1CCN(Cc2cccc(Cl)c2)CC1)C(=O)c1cn(C)c(=O)c2[nH]ccc12 [Example 199] | 18
44 | CN(CC1CCN(Cc2ccc(Cl)cc2)CC1)C(=O)c1cn(C)c(=O)c2[nH]ccc12 [Example 200, N-[[1-[(4-chloropbenyl)methyl]-4-piperidyl]methyl]-N,6-dimethyl-7-oxo-1H-pyrrolo[2,3-c]pyridine-4-carboxamide] | 8
